Patent US11014896B2, “TRPA1 and TRPV4 inhibitors and methods of using the same for organ-specific inflammation and itch” (Duke University, priority 2014, dated 2021)

Tests used:
[1] = Formalin-evoked nocifensive (rubbing) behavior, whisker-pad injection, in vivo pain model in mice; design: species or system mouse; conditions: for formalin-induced nocifensive behavior, time course: FIG. 21D; for formalin-induced nocifensive behavior, quantitation, in particular second phase: compounds pre-injected at 0.5 mM/10 μL into whiskerpad 15 min before 4% formalin
Procedure: Compounds were tested for their effect in reducing pain using an in vivo pain model in mice. For mouse formalin-evoked irritant behavior measurements, mice were well-fed, well-rested, and tested at the same time of day, at the same time-point of their circadian rhythm. They were allowed to acclimate to a plexiglas chamber for at least 30 min before testing, and received 10 μL subcutaneous injection of 4% of formalin (diluted from an aqueous solution of commercial 37% formaldehyde with normal saline (NS)) through a 30-gauge needle into the right whiskerpad, as further detailed in Luccarini et al. (J. Pain, 2006, 7, 908-914). Normal saline was used as control injection. After injection, mice were immediately placed back into the chamber and the rubbing behavior was recorded by a private consumer-type video-camera for a 45 min observation period. The recording time was divided into 9 blocks of 5 min, and a nociceptive score was determined per block by measuring the time that the animals spent rubbing the injected area predominantly with the ipsilateral fore-paw and rarely with hind-paw. This rubbing behavior with fore-paw is evoked by pain, which is distinct from itch behavior. Behavioral analysis was conducted by observers blinded to treatment.
To investigate the effects of the specific compounds GSK205, 16-8, and 16-8/18hy on formalin-induced nociceptive behavior, mice received a single subcutaneous injection of the compounds into the whiskerpad (10 μL, dissolved in 4% DMSO) 15 min before formalin injection. Control animals received the same volume of NS, 4% DMSO.

[2] = UVB-overexposure evoked nocifensive behavior (mouse model for sunburn), topical treatment; type: in vivo; conditions: 0.5 mM in 40 μL, n=4/group
Procedure: Compounds were tested for their effect on nocifensive behavior (response to pain) following UVB overexposure. Behavioral tests were performed to evaluate the decrease in withdrawal thresholds in response to mechanical von Frey hair or thermal stimuli applied to hind paws. The Von-Frey apparatus (Ugo Basile) applied a mechanical stimulus with a flexible steel wire from underneath the hind paw. The force leading to withdrawal was determined. For the thermal stimuli test, paws were stimulated with heat from underneath applied by an infrared beam (Hargreave's test apparatus; Ugo Basile), and withdrawal latencies were recorded. The withdrawal thresholds were ascertained before and after UV exposure. Mice were exposed to UVB 3-5 days after the last application of tam/oil, using a Bio-Rad Gel Doc 2000 UV transilluminator (302 nm) for 5 min with an exposure of 600 mJ/cm^2. This represents 5-10 times the minimal erythema-inducing dose, in keeping with the rationale of inducing sunburn and studying sunburn-evoked pain.

[3] = target: T1, human TRPA1 (Homo sapiens, UniProt O75762); experiment: Ca2+ transient in N2a cells transfected with human TRPA1; type: cell-based
T1 construct: expressed in transfected cells; host or cells: N2a cells, pcDNA3.1 plasmid, co-transfected with an eGFP plasmid
Procedure: Compounds were tested for their effect on TRPA1. N2a permanent cells were transfected with human TRPA1 cDNA, using a pcDNA3.1 expression plasmid. They were co-transfected with eGFP-expressing plasmid, or, for control, with eGFP plasmid only.

[4] = target: TRPV4 (Homo sapiens, UniProt Q9HBA0); experiment: TRPV4-mediated calcium influx in N2a cells with targeted expression of human TRPV4; type: cell-based; design: expressed in transfected cells; host or cells: N2a cells; conditions: 2.5 μM inhibitor, pre-incubation 10 min; TRPV4 activated with 10 nM GSK101
Procedure: Compounds (GSK205, 16-12, 16-13, 16-14, 16-18, 16-8, and 16-8/18hy) were tested for their effect on TRPV4-mediated calcium influx in N2a cultured cells with targeted expression of human TRPV4. Ca2+ imaging was performed according to Li et al. (Environ. Health Perspect. 2011, 119, 784-93) and Moore et al. (Proc. Natl. Acad. Sci. U.S.A. 2013, 110, E3225-E3234). Briefly, Ca2+ imaging of primary mouse epidermal keratinocytes (1° MK) in response to chemical activation of TRPV4 was conducted after loading with 2 μM fura2-AM, following a ratiometric Ca2+-imaging protocol with 340/380 nm blue light for dual excitation. Ratios of emissions were acquired at 0.5 Hz. ΔR/R0 was determined as the fraction of the increase of a given ratio over baseline ratio, divided by baseline ratio. For stimulation of cells with UVB, where fura-2 was not suitable because of the proximity of stimulation with 340/380 nm vs. 295 nm, 2 μM fluo4-AM was used instead. Ca2+ imaging was carried out at 488 nm excitation, acquisition of emissions at 0.5 Hz, expressed as ΔF/F0. TRPV4 was activated with 10 nM GSK101, a specific activator, which had no effect on RFP-transfected cells. Each of the […] compounds were added to a concentration of 2.5 μM, and its effect was observed.

T1 sequence (O75762 whole entry): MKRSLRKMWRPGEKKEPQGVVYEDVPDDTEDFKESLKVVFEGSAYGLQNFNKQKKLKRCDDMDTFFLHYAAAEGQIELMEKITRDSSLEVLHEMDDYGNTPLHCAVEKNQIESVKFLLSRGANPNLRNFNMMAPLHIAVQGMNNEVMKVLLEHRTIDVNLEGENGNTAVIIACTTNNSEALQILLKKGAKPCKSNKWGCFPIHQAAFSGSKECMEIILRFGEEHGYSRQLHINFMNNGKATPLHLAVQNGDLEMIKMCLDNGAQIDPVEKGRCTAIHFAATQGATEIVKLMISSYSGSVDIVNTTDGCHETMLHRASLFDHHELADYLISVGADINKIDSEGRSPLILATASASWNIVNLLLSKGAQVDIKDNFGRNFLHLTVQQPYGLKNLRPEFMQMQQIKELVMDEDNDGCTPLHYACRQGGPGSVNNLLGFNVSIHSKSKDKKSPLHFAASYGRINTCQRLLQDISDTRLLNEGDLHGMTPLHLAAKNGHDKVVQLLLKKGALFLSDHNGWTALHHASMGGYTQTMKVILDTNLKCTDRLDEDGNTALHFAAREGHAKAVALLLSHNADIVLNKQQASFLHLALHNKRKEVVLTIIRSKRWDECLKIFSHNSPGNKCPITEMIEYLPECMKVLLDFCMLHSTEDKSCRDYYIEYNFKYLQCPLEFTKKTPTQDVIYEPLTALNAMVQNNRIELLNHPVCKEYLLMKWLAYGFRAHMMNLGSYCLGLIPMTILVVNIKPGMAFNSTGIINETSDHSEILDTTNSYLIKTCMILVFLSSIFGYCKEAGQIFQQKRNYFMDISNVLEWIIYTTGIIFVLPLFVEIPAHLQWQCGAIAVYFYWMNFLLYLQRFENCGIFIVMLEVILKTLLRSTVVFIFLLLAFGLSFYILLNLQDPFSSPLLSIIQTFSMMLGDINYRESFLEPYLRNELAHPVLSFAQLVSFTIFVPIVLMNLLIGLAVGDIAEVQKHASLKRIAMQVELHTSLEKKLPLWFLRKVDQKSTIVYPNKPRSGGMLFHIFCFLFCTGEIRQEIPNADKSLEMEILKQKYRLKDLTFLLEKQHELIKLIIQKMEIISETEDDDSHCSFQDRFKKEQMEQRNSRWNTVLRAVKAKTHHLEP
Chain of TRPV4 (Q9HBA0 whole entry): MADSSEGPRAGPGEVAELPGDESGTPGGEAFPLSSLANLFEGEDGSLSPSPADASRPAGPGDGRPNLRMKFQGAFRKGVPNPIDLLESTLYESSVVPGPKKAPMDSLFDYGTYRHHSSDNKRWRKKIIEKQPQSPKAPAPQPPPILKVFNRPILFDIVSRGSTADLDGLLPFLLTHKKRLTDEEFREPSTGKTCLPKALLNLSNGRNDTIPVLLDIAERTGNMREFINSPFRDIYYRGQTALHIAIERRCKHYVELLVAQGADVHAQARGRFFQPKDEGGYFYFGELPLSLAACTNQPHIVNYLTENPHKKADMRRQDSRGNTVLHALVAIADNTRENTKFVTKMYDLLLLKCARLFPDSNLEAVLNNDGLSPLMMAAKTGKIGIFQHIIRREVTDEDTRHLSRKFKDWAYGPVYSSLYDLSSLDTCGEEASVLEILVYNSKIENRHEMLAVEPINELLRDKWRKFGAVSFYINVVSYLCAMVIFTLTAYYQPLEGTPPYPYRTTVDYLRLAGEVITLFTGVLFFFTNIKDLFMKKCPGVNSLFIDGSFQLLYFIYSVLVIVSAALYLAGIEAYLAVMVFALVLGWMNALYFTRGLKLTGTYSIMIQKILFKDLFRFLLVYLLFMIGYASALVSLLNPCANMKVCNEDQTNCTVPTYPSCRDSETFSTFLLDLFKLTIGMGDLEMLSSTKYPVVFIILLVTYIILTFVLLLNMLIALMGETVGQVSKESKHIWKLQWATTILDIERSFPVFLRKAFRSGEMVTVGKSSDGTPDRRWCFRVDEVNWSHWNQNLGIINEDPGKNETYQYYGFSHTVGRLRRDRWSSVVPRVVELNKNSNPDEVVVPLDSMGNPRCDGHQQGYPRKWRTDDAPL

Structure (SMILES) | formalin-induced nocifensive behavior at the 45-min time-point ([1]; 0.5 mM/10 μL, 45-min time-point) | formalin-induced nocifensive behavior, time course ([1]; 0.5 mM/10 μL) | formalin-induced nocifensive behavior, quantitation, in particular second phase [1] | UVB-overexposure evoked nocifensive behavior (response to pain) [2] | inhibitory activity against human TRPA1 ([3]; 5 μM compound) | inhibition of TRPV4-mediated calcium influx (peak calcium concentration in the cells) [4] | inhibition of TRPA1 activity ([3]; doses below or equaling 25 μM)
CN(CCc1ccc(Nc2nc(-c3ccccc3)cs2)cc1)Cc1ccccc1 [Compound 16-8] | reduction to control levels | significantly attenuated nocifensive behavior | significant attenuation of nocifensive behavior | especially effective in reducing the response to pain | inhibitory activity | most potent | 
CN(CCc1ccc(Nc2nc(-c3cccnc3)cs2)cc1)Cc1ccccc1 [GSK205] |  | not different from control | lack of effect | as effective as vehicle |  | very low potency | did not inhibit TRPA1 activity
